Laboratory results as given in patent publication US8691534B2, “Preparation of romidepsin” (Celgene Corporation, priority 2006, dated 2014).

Test: pH-dependent stability of romidepsin in solution during production, purification and storage
Type: physicochemical
From the text: Based on this recognition, the present invention provides a system for reproducibly preparing romidepsin under conditions that reduce the levels of these contaminating side products. […] This improvement in the purification process of romidepsin allows for higher yields of romidepsin and/or higher purity romidepsin than that provided by known processes. Such an improvement is particularly useful for preparing pharmaceutical grade romidepsin for use in humans.
Romidepsin is a cyclic depsipeptide having a disulfide bond. […] Such adducts are typically insoluble and difficult to remove from purified romidepsin. In certain embodiments, such contaminating adducts prevent a preparation of romidepsin from meeting the desired specifications (e.g., solubility, degree of purity, optical rotation, etc.). In pharmaceutical compositions, these adducts decrease the purity of the active agent, romidepsin. Since romidepsin is being used as a pharmaceutical agent in humans, it is important that pure, stable, monomeric romidepsin be reproducibly obtained from a fermentation of Chromobacterium violaceum. The present invention stems from the recognition that alkaline conditions cause the formation of these undesired romidepsin adducts and provides a novel solution to this problem.

Structure (SMILES): C/C=C1\NC(=O)[C@H]2CSSCC/C=C/[C@H](CC(=O)N[C@H](C(C)C)C(=O)N2)OC(=O)[C@H](C(C)C)NC1=O [Romidepsin, (1S,4S,10S,16E,21R)-7-[(2Z)-ethylidene]-4,21-diisopropyl-2-oxa-12,13-dithia-5,8,20,23-tetraazabicyclo[8.7.6]tricos-16-ene-3,6,9,19,22-pentanone]
- reduction of the disulfide bond (basic conditions, e.g. greater than an apparent pH of ~7): facilitates the reduction of this disulfide bond
- formation of dimerized, oligomerized, or polymerized romidepsin (producing, purifying and/or storing at an apparent pH less than approximately 6.5, more preferably less than approximately 6.0): prevent the formation of dimerized, oligomerized, or polymerized romidepsin
